In this experiment the test system is P. falciparum 3D7 growth, pLDH absorbance. Put plainly: P. falciparum 3D7 growth inhibition, dose response, strain 3D7 (AID 2305).

`O=C(Nc1cccc(Oc2ccccc2)c1)N[C@H]1CCN(Cc2ccc(OCCCN3CCCCC3)cc2)C1`: the IC50 – broadly, the concentration that inhibits the measured activity by half – turned out to be 720 nM.
In the case of `N#Cc1cccc(NC(=O)Nc2ccc3c(c2)CCN(C2CCC2)CC3)c1` it was 840 nM; in that of `Cc1cc(N2CCCC2=O)ccc1-c1ccc(C(=O)N2CCC(Oc3cccc(Cl)c3)CC2)cc1`, 430 nM; in that of `COC(=O)c1cccc(CNCc2cccc(-c3ccc(-c4nc5ccccc5[nH]4)cc3)c2)c1`, 350 nM.
In the case of `CC(CN1CCN(C)CC1)C(=O)Nc1cccc(-c2ccc(-c3nc4ccccc4[nH]3)cc2)c1` (stereo unspecified), the IC50 was 940 nM.
As for `Oc1cc(Nc2ccnc3cc(-c4ccc(CN5CCCCC5)o4)ccc23)c(Cl)cc1F`, the IC50 came to 120 nM.
Consider `O=C(Nc1ccc(Cl)cc1)c1ccc(CN2CCCN(CC3CCCCC3)CC2)cc1`, for which the IC50 came out at 220 nM.
The compound `Cc1nc2c(Nc3nc(-c4ccncc4)cs3)ncnc2n1-c1ccccc1Cl` gave an IC50 of 180 nM.
The compound `COc1ccc2c(c1)CC(C)(C)NC2CCCCCCCCC1NC(C)(C)Cc2cc(OC)ccc21` (stereo unspecified) yielded an IC50 of 1300 nM.
Under `CN(C)Cc1cccc(-c2ccc(NC(=O)c3ccc4c(=O)n(Cc5ccoc5)cnc4c3)cc2)c1` stands 770 nM; under `CCCCCCCN1CC[C@@H](CCC(O)c2ccnc3ccc(OC)cc23)[C@@H](CC)C1` (stereo partly specified), 750 nM.
Under `CCc1nc(N)nc(N)c1-c1cccc(Cl)c1` stands 190 nM; under `CCc1cc(-c2onc(C)c2-c2cc3ccccc3o2)c(O)cc1OC`, 970 nM.
In the case of `O=C(O[C@@H]1CN[C@H](C#Cc2cc3ncnc(Nc4ccc5c(cnn5Cc5cccc(F)c5)c4)c3s2)C1)N1CCCC1` it was 760 nM; in that of `COCCOc1cccc(CN2CCC(c3cc4nc(C)cc(C(F)(F)F)n4n3)C2)c1` (stereo unspecified), 1330 nM.
Compound `O=c1cc(NCCCNC(CNCCc2ccccc2)c2cc(Br)cc(Br)c2)[nH]c2ccccc12` (stereo unspecified) yielded an IC50 of 860 nM.
`COc1c(CN2CCOCC2)cccc1-c1cc2c(-c3ccc(C(=O)O)c(C(C)C)c3)ccnc2[nH]1`: the IC50 stood at 740 nM.
Compound `Cc1ccc(-c2nc(N3CCN(C(=O)c4ccco4)CC3)c3ccccc3n2)cc1` returned a concentration for half-maximal inhibition (IC50) of 970 nM.
In the case of `CC(C)N1CCN(CCCCNc2c3ccccc3nc3ccccc23)CC1` it was 540 nM; in that of `O=C(/C=C/c1c(Cl)cccc1Cl)NC1CCC(CN2CCC(Cc3cc4ccccc4[nH]3)CC2)CC1` (stereo unspecified), 970 nM.
Regarding `NC1=NC(c2ccccc2)(c2ccccn2)C(=O)N1CCCc1ccccc1` (stereo unspecified), the IC50 is 1040 nM.
In turn, `O=S(=O)(NCCN1CCCC1)c1ccc(-c2cccc(CNCc3ccc(F)cc3)c2)cc1F` came in with an IC50 of 790 nM.
In the case of `COc1ccc(Cl)cc1NC(=O)C(C)N1CCN(S(=O)(=O)c2ccccc2F)CC1` (stereo unspecified) it was 670 nM; in that of `O=C(NCCCCN1CCC(c2ccc3c(c2O)CCCC3)CC1)c1ccc(NC(=O)c2ccc(Cl)cc2)cc1`, 240 nM; in that of `COc1c(C2CCN(CCCCNC(=O)c3ccc(-c4ccc(C(=O)C(F)(F)F)cc4)cc3)CC2)ccc2c1CCCC2`, 1100 nM.
In the case of `COc1ccc(CN2CCC(CNCCc3ccccc3Oc3ccccc3)CC2)cc1` it was 1100 nM; in that of `COc1cccc(CNc2noc(-c3c(-c4ccccc4)noc3C)n2)c1OC`, 870 nM.
Under `CN1CCN(CC(=O)Nc2ccc(-c3cccc(-c4nc5ccc(C(F)(F)F)cc5[nH]4)c3)cc2)CC1` stands 400 nM; under `Oc1ccc(CNCCCCCCNCCc2ccc(Cl)cc2)cc1O`, 990 nM; under `Cc1cc(N2CC=CCC2)nc(/N=C(\N)Nc2ccc(Br)cc2)n1`, 690 nM.
The compound `COc1ccc(CNC2CCN(C)CC2)cc1-c1cccc(S(=O)(=O)NCc2ccccc2)c1` displayed an IC50 of 720 nM.
`CC1(C)N=C(N)N=C(N)N1OCc1cc(Cl)c(Cl)cc1CON1C(N)=NC(N)=NC1(C)C` returned an IC50 of 10 nM.
`CCN(CC)Cc1cc(NC(=O)c2ccccc2O)ccc1Oc1ccc(Cl)cc1` returned an IC50 of 830 nM.
On to `Cc1ccoc1C(=O)Nc1cccc(-c2cccc(-c3nc4ccc(C(F)(F)F)cc4[nH]3)c2)c1`, for which the IC50 was found to be 610 nM.
`CC(C)c1cccc(C(NC(=O)[C@H]2Cc3ccccc3CN2C(=O)c2cccc(N3CCOCC3)c2)C2CCCC2)c1` (stereo partly specified) returned an IC50 of 720 nM.
Under `COc1cccc(C=Cc2nc(=O)c3ccccc3o2)c1OC` stands 60 nM; under `CC(C)(C)c1nn(-c2ccccc2)c2[nH]c(=O)c(CNCc3ccc4c(c3)OCO4)cc12`, 1050 nM.
`O=C(NCCCCN1CCC[C@@H]2c3cccc(O)c3CC[C@@H]21)c1ccc(-c2ccccc2)cc1` came in with an IC50 of 1170 nM.
`OCc1ccc2nc3c(cc2c1)-c1cccc2cccc-3c12` gave a half-maximal inhibitory concentration (IC50) of 660 nM.
`CC(C)N(CCOc1ccc2c(c1)N(C(=O)Nc1ccc(Cl)c(Cl)c1)CC2)C(C)C` gave an IC50 of 370 nM.
Under `Cc1cc(N[C@@H](Cc2ccccc2)C(=O)NCc2cccs2)nc(NCCc2ccccc2)n1` stands 790 nM.
Under `CCN(CC)CCN(CCCc1ccc(-c2ccc(C(F)(F)F)cc2)cc1)C(=O)Cn1c(CCc2cccc(F)c2F)nc(=O)c2c1CCC2` stands 830 nM; under `O=C(Nc1ccc2c(c1)CCN(C1CCC1)CC2)c1ccc(-n2ccnc2)cn1`, 370 nM; under `Cc1cc2nc(-c3ccc(C(=O)NC4CCN(Cc5ccccc5)CC4)s3)[nH]c2cc1C`, 770 nM.
The compound `CC(C)N1CCC(N(Cc2ccc(-c3ccc(C(F)(F)F)cc3)cc2)C(=O)Cn2c(SCc3cccc(F)c3F)nc(=O)c3ccccc32)CC1` showed an IC50 of 1050 nM.
In turn, `CC(=O)N[C@H](C(=O)Nc1ccc(-c2ccc(-c3nc4ccc(C(F)(F)F)cc4[nH]3)s2)cc1)C(C)C` had a 50% inhibitory concentration (IC50) of 1030 nM.
`CC(C)CN1CCC(N(C)c2cc(NC(=O)c3cccc(F)c3)ccn2)CC1`: the IC50 turned out to be 850 nM.
Consider `CCCc1cc(Cc2cnc(N)nc2N)ccc1OCCCCCC(=O)O`, for which the IC50 stood at 580 nM.
Compound `O=C(NCc1ccccc1)c1ncn(CCCN2CCC(N3CCCC3)CC2)c1-c1ccc(Cl)c(Cl)c1` showed an IC50 of 1120 nM.
As for `CN1CCCc2cc(NC(=O)C=Cc3ccc(-c4ccc(F)cc4F)o3)ccc2C1`, the IC50 stood at 780 nM.
Under `COc1ccccc1N1CCN(C(C(=O)NCc2ccc3c(c2)OCO3)c2ccc(C)cc2)CC1` (stereo unspecified) stands 980 nM.
Under `CC1(C)S(=O)(=O)CC(O)CS1(=O)=O` stands 470 nM.
`O=C(NCCN1CCCC1)c1cccc(Nc2nccc(Nc3ccc(Oc4ccccc4)cc3)n2)c1` gave an IC50 of 650 nM.
The compound `O=C(NCc1ccccc1)O[C@@H]1CNCC[C@H]1c1ccc(C(O)Cc2ccccc2)cc1` (stereo partly specified) came in with an IC50 of 580 nM.
Under `O=C(Nc1ccc2ccccc2c1)c1ccc(CN2CCC(Cc3ccccc3)CC2)cc1` stands 880 nM; under `CS(=O)(=O)Cc1ccc(Nc2nccc(NC3CCN(c4nccc(C(F)(F)F)n4)CC3)n2)cc1`, 900 nM.
As for `COc1ccc(CN(C)CC(O)COc2ccc(NC(=O)c3cccc4c(=O)c5cccc(OC)c5[nH]c34)cc2)cc1OC` (stereo unspecified), the IC50 is 780 nM.
Take `O=c1cc(NCCCNCc2scc3c(Cl)cc(C(F)(F)F)nc23)[nH]c2ccccc12`: the IC50 is 750 nM.
Under `COc1ccc(CNC(=O)c2cnc3cc(-c4c(C)noc4C)ccc3c2Nc2ccccc2C(C)(C)C)cc1` stands 1300 nM.
Regarding `O=C(NCCNc1noc(-c2sccc2Br)n1)c1ccc(Cl)cc1`, the IC50 was 1170 nM.
In the case of `COc1ccc(C(=O)N2CCC3(CC2)C(=O)N(CC(=O)NCC2CCCCC2)CN3c2ccccc2)cc1` it was 270 nM; in that of `Cc1cc(O)c(CN(C)Cc2ccc(N(C)C)cc2)cc1C(C)C`, 550 nM.
Under `COc1ccc2nccc(N3CCC(CCNCc4cc5c(cn4)OCCO5)CC3)c2n1` stands 220 nM.
Consider `CCCNC(=O)c1cncc(-c2cccc(CNC3Cc4ccccc4C3)c2)c1`, for which the IC50 was found to be 800 nM.
In turn, `Cc1cc(N[C@@H](CC(C)C)C(=O)NCCc2ccccc2)nc(NCCc2ccc(F)cc2)n1` came in with an IC50 of 770 nM.
Turning to `C[C@@H](N=C(Nc1ccc(-c2ccccc2)cc1)Nc1ccc(C#N)cc1O)c1ccc(Br)cc1`, the IC50 was 700 nM.
Under `COc1ccc2nccc([C@@H](O)CN3CCC(NC(=O)c4ccc(Cl)c(OC)c4)CC3)c2c1` stands 790 nM.
In the case of `O=c1[nH]c2ccc3[nH]cccc3c2c1C=Nc1ccc(Cn2ccnc2)cc1` it was 660 nM; in that of `CC[C@H]1CN2CC[C@@H]1C[C@H]2[C@H](O)c1cc(-c2cc(Cl)cc(Cl)c2)nc2ccc(OC)cc12`, 240 nM.
In the case of `COc1ccc2nccc(N3CCN(CCNCc4ccc5c(n4)NC(=O)CS5)CC3)c2c1` it was 950 nM; in that of `Cc1[nH]c(C)c(-c2ccc(Oc3ccc(F)cc3)cc2)c(=O)c1Cl`, 50 nM.
For the compound `COc1ccc(C2(CNCC(O)c3cccc([N+](=O)[O-])c3)CCCCC2)cc1OC` (stereo unspecified), the IC50 was 960 nM.
On to `CCS(=O)(=O)Nc1ccc2[nH]c(O)c(C(=Nc3ccc(CN4CCCCC4)cc3)c3ccccc3)c2c1`, for which the IC50 came out at 60 nM.
Under `CC1CN=C(Nc2ncc(Cl)cc2Cl)N1` (stereo unspecified) stands 240 nM; under `CCN(CCCN1CCCCC1)c1cc(C)nc(Nc2ccc(C)cc2)n1`, 410 nM; under `NS(=O)(=O)c1cccc(Nc2nccc(-c3cnn4ncccc34)n2)c1`, 660 nM.
Turning to `Cc1ccc2nc(-c3cc(-c4cccc(CCN5CCOCC5)c4)cnc3N)[nH]c2c1`, the IC50 amounted to 170 nM.
In the case of `O=C(C=Cc1ccc(Cl)c(Cl)c1)NCCCCCN1CCC(CCCNC(=O)[C@@H]2C[C@H]2c2ccccc2)CC1` it was 770 nM; in that of `Cc1cccc2[nH]c(-c3cccc(-c4ccc(NC(=O)c5ccoc5)cc4)c3)nc12`, 700 nM; in that of `COc1ccc2nccc([C@@H](O)CN3CCC(NC(=O)c4cc5c(F)cc(F)cc5[nH]4)CC3)c2c1`, 240 nM.
In turn, `O=C(Nc1cc(C(F)(F)F)cc(C(F)(F)F)c1)Nc1ccc(Cl)c(Cl)c1` yielded an IC50 of 240 nM.
For the compound `CO/C(=C\C=C\c1cc2cc(Cl)c(Cl)cc2[nH]1)C(=O)NCCCN1CC(C)N(C)CC1C` (stereo unspecified), the IC50 stood at 1130 nM.
The compound `O=S(=O)(c1ccc(Oc2ccccc2)cc1)N(CCC(O)(C(F)(F)F)C(F)(F)F)Cc1cccc(O)c1` registered an IC50 of 490 nM.
Take `CC(O)c1cccc(-c2ccc(Nc3ccnc4cc(-c5nccs5)ccc34)cc2)c1` (stereo unspecified): the IC50 turned out to be 1010 nM.
Under `Cc1cc(N[C@@H](Cc2ccccc2)C(=O)Nc2ccccc2)nc(NCCc2ccccc2)n1` stands 870 nM; under `CC(C)N(Cc1cnc2nc(N)nc(N)c2n1)c1ccc(Cl)c(Cl)c1`, 160 nM.
